By EC50 is commonly meant the concentration that produces a half-maximal response.

Where two headings read alike, the source gives them in different places.

The source of these data is US9758561B2 (priority 2014, dated 2017).

Format in all cases: cell-based
One assay has as its target T1, human GLP-1 receptor (Homo sapiens, UniProt P43220).
T1 construct: expressed in transfected cells; host or cells: HEK-293
The assay is described as follows: cAMP response of HEK-293 cells stably expressing human GLP-1 receptor (HTRF). The settings on record: read-out: EC50 hGLP-1R. Here is the method:
(§1) For preparation, cells were split into T175 culture flasks and grown overnight to near confluency in medium (DMEM/10% FBS). Medium was then removed and cells washed with PBS lacking calcium and magnesium, followed by proteinase treatment with accutase (Sigma-Aldrich cat. no. A6964). Detached cells were washed and resuspended in assay buffer (1×HBSS; 20 mM HEPES, 0.1% BSA, 2 mM IBMX) and cellular density determined. They were then diluted to 400000 cells/ml and 25 μl-aliquots dispensed into the wells of 96-well plates. For measurement, 25 μl of test compound in assay buffer was added to the wells, followed by incubation for 30 minutes at room temperature. […] Potencies of peptidic compounds at the GLP-1, glucagon and GIP receptors were determined by exposing cells expressing human glucagon receptor (hGlucagon R), human GIP receptor (hGIP-R) or human GLP-1 receptor (hGLP-1R) to the listed compounds at increasing concentrations and measuring the formed cAMP as described in Methods.
On the technique in general: TR-FRET usually uses a lanthanide donor and a delayed reading to cut background.

The target in another assay is T2, human GIP receptor (Homo sapiens, UniProt P48546).
T2 construct: expressed in transfected cells; host or cells: HEK-293
T2 sequence (P48546 22-466): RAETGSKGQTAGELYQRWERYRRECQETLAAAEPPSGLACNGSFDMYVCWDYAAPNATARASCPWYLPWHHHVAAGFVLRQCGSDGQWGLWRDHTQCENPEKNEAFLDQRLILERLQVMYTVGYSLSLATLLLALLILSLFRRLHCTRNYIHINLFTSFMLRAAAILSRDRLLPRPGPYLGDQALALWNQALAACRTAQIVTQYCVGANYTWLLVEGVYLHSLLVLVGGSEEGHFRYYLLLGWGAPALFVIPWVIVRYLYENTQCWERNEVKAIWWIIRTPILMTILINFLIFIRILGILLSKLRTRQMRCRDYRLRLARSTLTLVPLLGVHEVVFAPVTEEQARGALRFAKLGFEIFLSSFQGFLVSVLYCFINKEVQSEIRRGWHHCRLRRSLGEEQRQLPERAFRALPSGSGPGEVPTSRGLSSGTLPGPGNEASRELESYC
The assay is described as follows: cAMP response of HEK-293 cells stably expressing human GIP receptor (HTRF). Here is the method:
as §1

The target in another assay is T3, human glucagon receptor (Homo sapiens, UniProt P47871).
T3 construct: expressed in transfected cells; host or cells: HEK-293
T3 sequence (P47871 26-477): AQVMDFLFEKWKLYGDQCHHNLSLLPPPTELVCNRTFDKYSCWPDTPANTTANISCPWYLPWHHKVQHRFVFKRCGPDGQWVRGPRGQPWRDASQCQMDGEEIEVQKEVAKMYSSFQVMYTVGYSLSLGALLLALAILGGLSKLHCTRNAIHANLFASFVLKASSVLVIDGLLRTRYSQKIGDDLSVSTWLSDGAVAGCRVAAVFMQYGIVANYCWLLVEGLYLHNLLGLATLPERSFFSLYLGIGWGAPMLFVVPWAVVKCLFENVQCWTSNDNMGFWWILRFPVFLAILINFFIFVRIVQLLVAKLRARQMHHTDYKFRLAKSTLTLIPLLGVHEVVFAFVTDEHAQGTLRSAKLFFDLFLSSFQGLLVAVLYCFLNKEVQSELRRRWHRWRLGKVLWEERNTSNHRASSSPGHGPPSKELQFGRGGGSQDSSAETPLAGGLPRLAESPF
The assay is described as follows: cAMP response of HEK-293 cells stably expressing human glucagon receptor (HTRF). The settings on record: read-out: EC50 hGlucagon-R. As for the experimental part:
as §1

The mark [1] stands for this setting: Table 7, comparison of residue in position 14.

T1 sequence (P43220 24-463): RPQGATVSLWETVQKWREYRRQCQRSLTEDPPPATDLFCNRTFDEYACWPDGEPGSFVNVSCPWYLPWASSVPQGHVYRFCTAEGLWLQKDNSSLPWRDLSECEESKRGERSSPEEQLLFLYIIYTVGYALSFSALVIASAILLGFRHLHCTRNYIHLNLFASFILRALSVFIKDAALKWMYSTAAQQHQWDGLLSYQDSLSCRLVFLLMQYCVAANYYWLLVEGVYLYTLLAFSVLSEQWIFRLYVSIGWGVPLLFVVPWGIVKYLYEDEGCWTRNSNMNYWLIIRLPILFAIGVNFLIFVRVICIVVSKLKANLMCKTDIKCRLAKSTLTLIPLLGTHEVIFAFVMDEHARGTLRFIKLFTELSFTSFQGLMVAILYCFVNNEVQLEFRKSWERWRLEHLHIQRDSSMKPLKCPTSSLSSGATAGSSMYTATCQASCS

As to `CCCCCCCCCCCCCCCC(=O)N[C@@H](CCC(=O)N[C@@H](CCC(=O)NCCCC[C@H](NC(=O)[C@H](CCC(N)=O)NC(=O)[C@H](CCCCN)NC(=O)[C@H](CO)NC(=O)[C@H](CC(C)C)NC(=O)[C@H](CC(=O)O)NC(=O)[C@H](CO)NC(=O)[C@@H](NC(=O)[C@H](Cc1ccccc1)NC(=O)[C@@H](NC(=O)CNC(=O)[C@H](CCC(N)=O)NC(=O)[C@H](CO)NC(=O)[C@@H](N)Cc1c[nH]cn1)[C@@H](C)O)[C@@H](C)O)C(=O)N[C@@H](CC(=O)O)C(=O)N[C@@H](CCC(=O)O)C(=O)N[C@@H](CCC(=O)O)C(=O)N[C@@H](C)C(=O)N[C@@H](C)C(=O)N[C@@H](CCCNC(=N)N)C(=O)N[C@@H](CC(C)C)C(=O)N[C@@H](Cc1ccccc1)C(=O)N[C@H](C(=O)N[C@@H](CCC(=O)O)C(=O)N[C@@H](Cc1c[nH]c2ccccc12)C(=O)N[C@@H](CC(C)C)C(=O)NC(C)(C)C(=O)N[C@@H](C)C(=O)NCC(=O)NCC(=O)N1CCC[C@H]1C(=O)N[C@@H](CO)C(=O)N[C@@H](CO)C(=O)NCC(=O)N[C@@H](C)C(=O)N1CCC[C@H]1C(=O)N1CCC[C@H]1C(=O)N1CCC[C@H]1C(=O)N[C@@H](CO)C(N)=O)[C@@H](C)CC)C(=O)O)C(=O)O` [SEQ ID NO: 11, H-S-Q-G-T-F-T-S-D-L-S-K-Q-K(γE-γE-x53)-D-E-E-A-A-R-L-F-I-E-W-L-Aib-A-G-G-P-S-S-G-A-P-P-P-S-NH2], the EC50 on human GLP-1 receptor (Table 6) stood at 1.2 pM; on human GIP receptor (Table 6, read-out: EC50 hGIP-R), 560 pM; at human glucagon receptor (Table 6) it was 5.1 pM.

Regarding `CCCCCCCCCCCCCCCCCC(=O)N[C@@H](CCC(=O)NCCCC[C@H](NC(=O)[C@H](CCC(N)=O)NC(=O)[C@H](CCCCN)NC(=O)[C@H](CO)NC(=O)[C@H](CC(C)C)NC(=O)[C@H](CC(=O)O)NC(=O)[C@H](CO)NC(=O)[C@@H](NC(=O)[C@H](Cc1ccccc1)NC(=O)[C@@H](NC(=O)CNC(=O)[C@H](CCC(N)=O)NC(=O)[C@@H](CO)NC(=O)[C@@H](N)Cc1c[nH]cn1)[C@@H](C)O)[C@@H](C)O)C(=O)N[C@@H](CC(=O)O)C(=O)N[C@@H](CCC(=O)O)C(=O)N[C@@H](CCC(=O)O)C(=O)N[C@@H](C)C(=O)N[C@@H](C)C(=O)N[C@@H](CCCNC(=N)N)C(=O)N[C@@H](CC(C)C)C(=O)N[C@@H](Cc1ccccc1)C(=O)N[C@H](C(=O)N[C@@H](CCC(=O)O)C(=O)N[C@@H](Cc1c[nH]c2ccccc12)C(=O)N[C@@H](CC(C)C)C(=O)NC(C)(C)C(=O)N[C@@H](C)C(=O)NCC(=O)NCC(=O)N1CCC[C@H]1C(=O)N[C@@H](CO)C(=O)N[C@@H](CO)C(=O)NCC(=O)N[C@@H](C)C(=O)N1CCC[C@H]1C(=O)N1CCC[C@H]1C(=O)N1CCC[C@H]1C(=O)N[C@@H](CO)C(N)=O)[C@@H](C)CC)C(=O)O` [SEQ ID NO: 13, H-dSer-Q-G-T-F-T-S-D-L-S-K-Q-K(γE-x70)-D-E-E-A-A-R-L-F-I-E-W-L-Aib-A-G-G-P-S-S-G-A-P-P-P-S-NH2], the EC50 on human GLP-1 receptor (Table 6) amounted to 2.7 pM; at human GIP receptor (Table 6, read-out: EC50 hGIP-R) it was 2540 pM; at human glucagon receptor (Table 6), 6.8 pM.

As for `CCCCCCCCCCCCCCCC(=O)N[C@@H](CCC(=O)N[C@@H](CCC(=O)NCCCC[C@H](NC(=O)[C@H](CCC(N)=O)NC(=O)[C@H](CCCCN)NC(=O)[C@H](CO)NC(=O)[C@H](CC(C)C)NC(=O)[C@H](CC(=O)O)NC(=O)[C@H](CO)NC(=O)[C@@H](NC(=O)[C@H](Cc1ccccc1)NC(=O)[C@@H](NC(=O)CNC(=O)[C@H](CCC(N)=O)NC(=O)[C@@H](CO)NC(=O)[C@@H](N)Cc1c[nH]cn1)[C@@H](C)O)[C@@H](C)O)C(=O)N[C@@H](CCC(=O)O)C(=O)N[C@@H](CCC(=O)O)C(=O)N[C@@H](CCC(=O)O)C(=O)N[C@@H](C)C(=O)N[C@@H](C)C(=O)N[C@@H](CCCNC(=N)N)C(=O)N[C@@H](CC(C)C)C(=O)N[C@@H](Cc1ccccc1)C(=O)N[C@H](C(=O)N[C@@H](CCC(=O)O)C(=O)N[C@@H](Cc1c[nH]c2ccccc12)C(=O)N[C@@H](CC(C)C)C(=O)NC(C)(C)C(=O)N[C@@H](C)C(=O)NCC(=O)NCC(=O)N1CCC[C@H]1C(=O)N[C@@H](CO)C(=O)N[C@@H](CO)C(=O)NCC(=O)N[C@@H](C)C(=O)N1CCC[C@H]1C(=O)N1CCC[C@H]1C(=O)N1CCC[C@H]1C(=O)N[C@@H](CO)C(N)=O)[C@@H](C)CC)C(=O)O)C(=O)O` [SEQ ID NO: 16, H-dSer-Q-G-T-F-T-S-D-L-S-K-Q-K(γE-γE-x53)-E-E-E-A-A-R-L-F-I-E-W-L-Aib-A-G-G-P-S-S-G-A-P-P-P-S-NH2], the concentration for a half-maximal effect (EC50) on human GLP-1 receptor (Table 6) came to 1.8 pM; on human GIP receptor (Table 6, read-out: EC50 hGIP-R), 7780 pM; at human glucagon receptor (Table 6), 35.4 pM.

For `CCCCCCCCCCCCCCCC(=O)N[C@@H](CCC(=O)N[C@@H](CCC(=O)NCCCC[C@H](NC(=O)[C@H](CCC(N)=O)NC(=O)[C@H](CCCCN)NC(=O)[C@H](CO)NC(=O)[C@H](CC(C)C)NC(=O)[C@H](CC(=O)O)NC(=O)[C@H](CO)NC(=O)[C@@H](NC(=O)[C@H](Cc1ccccc1)NC(=O)[C@@H](NC(=O)CNC(=O)[C@H](CCC(N)=O)NC(=O)[C@@H](CO)NC(=O)[C@@H](N)Cc1c[nH]cn1)[C@@H](C)O)[C@@H](C)O)C(=O)N[C@@H](CC(=O)O)C(=O)N[C@@H](CCC(=O)O)C(=O)N[C@@H](CCC(=O)O)C(=O)N[C@@H](C)C(=O)N[C@@H](C)C(=O)N[C@@H](CCCNC(=N)N)C(=O)N[C@@H](CC(C)C)C(=O)N[C@@H](Cc1ccccc1)C(=O)N[C@H](C(=O)N[C@@H](CCC(=O)O)C(=O)N[C@@H](Cc1c[nH]c2ccccc12)C(=O)N[C@@H](CC(C)C)C(=O)N[C@@H](CCCCN)C(=O)N[C@@H](C)C(=O)NCC(=O)NCC(=O)N1CCC[C@H]1C(=O)N[C@@H](CO)C(=O)N[C@@H](CO)C(=O)NCC(=O)N[C@@H](C)C(=O)N1CCC[C@H]1C(=O)N1CCC[C@H]1C(=O)N1CCC[C@H]1C(=O)N[C@@H](CO)C(N)=O)[C@@H](C)CC)C(=O)O)C(=O)O` [SEQ ID NO: 32, H-dSer-Q-G-T-F-T-S-D-L-S-K-Q-K(γE-γE-x53)-DEEAARLFIEWLKAGGPSSGAPPPS-NH2, reference compound], the EC50 was 1.9 pM at human GLP-1 receptor (setting [1]); 565 pM at human GIP receptor (Table 7, comparison of residue in position 14, read-out: EC50 hGIP-1); 5.5 pM on human glucagon receptor (setting [1]).

For the compound `CCCCCCCCCCCCCCCC(=O)N[C@@H](CCC(=O)N[C@@H](CCC(=O)NCCCC[C@H](NC(=O)[C@H](CCC(N)=O)NC(=O)[C@H](CCCCN)NC(=O)[C@H](CO)NC(=O)[C@H](CC(C)C)NC(=O)[C@H](CC(=O)O)NC(=O)[C@H](CO)NC(=O)[C@@H](NC(=O)[C@H](Cc1ccccc1)NC(=O)[C@@H](NC(=O)CNC(=O)[C@H](Cc1c[nH]cn1)NC(=O)[C@@H](CO)NC(=O)[C@@H](N)Cc1c[nH]cn1)[C@@H](C)O)[C@@H](C)O)C(=O)N[C@@H](CCC(=O)O)C(=O)N[C@@H](CCC(=O)O)C(=O)N[C@@H](CCC(=O)O)C(=O)N[C@@H](C)C(=O)N[C@@H](C)C(=O)N[C@@H](CCCNC(=N)N)C(=O)N[C@@H](CC(C)C)C(=O)N[C@@H](Cc1ccccc1)C(=O)N[C@H](C(=O)N[C@@H](CCC(=O)O)C(=O)N[C@@H](Cc1c[nH]c2ccccc12)C(=O)N[C@@H](CC(C)C)C(=O)N[C@@H](CCCCN)C(=O)N[C@@H](C)C(=O)NCC(=O)NCC(=O)N1CCC[C@H]1C(=O)N[C@@H](CO)C(=O)N[C@@H](CO)C(=O)NCC(=O)N[C@@H](C)C(=O)N1CCC[C@H]1C(=O)N1CCC[C@H]1C(=O)N1CCC[C@H]1C(=O)N[C@@H](CO)C(N)=O)[C@@H](C)CC)C(=O)O)C(=O)O` [SEQ ID NO: 30, H-dSer-H-G-T-F-T-S-D-L-S-K-Q-K(γE-γE-x53)-EEEAARLFIEWLKAGGPSSGAPPPS-NH2, reference compound], the EC50 at human glucagon receptor (Table 8, comparison Aib vs. Lys in position 27) is 5.1 pM.
